From US20090175845A1, “METHODS FOR IDENTIFYING COMPOUNDS THAT MODULATE PHB DOMAIN PROTEIN ACTIVITY AND COMPOSITIONS THEREOF” (THE TRUSTEES OF COLUMBIA UNIVERSITY IN THE CITY OF NEW YORK, priority 2005, published 2009)

What was measured:
Podocin [1] = biological target: T1, Podocin (Mus musculus, UniProt Q91X05); test: Detergent-resistant membrane (DRM) fractionation by density gradient centrifugation; format: cell-based; conditions: limited cholesterol depletion with MBCD; readdition of cholesterol, FIG. 1D
T1 construct: expressed in transfected cells; host or cells: HEK 293T
T1 sequence (Q91X05 1-385): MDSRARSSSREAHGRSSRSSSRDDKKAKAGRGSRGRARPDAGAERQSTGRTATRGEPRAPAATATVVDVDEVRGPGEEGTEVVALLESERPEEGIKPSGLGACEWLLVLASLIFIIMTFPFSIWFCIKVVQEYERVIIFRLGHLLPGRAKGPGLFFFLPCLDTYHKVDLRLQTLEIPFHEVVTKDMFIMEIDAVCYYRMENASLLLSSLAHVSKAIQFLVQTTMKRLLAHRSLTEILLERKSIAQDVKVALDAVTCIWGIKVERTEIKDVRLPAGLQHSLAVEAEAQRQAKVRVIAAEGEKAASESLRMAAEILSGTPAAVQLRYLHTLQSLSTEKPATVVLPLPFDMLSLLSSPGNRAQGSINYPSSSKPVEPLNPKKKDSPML
Description: (§1) Preparation of Detergent-Resistant Membrane Domains and Cholesterol Measurement—For preparation of low-density Triton® X-100—insoluble membrane domains (DRM; LDF) HEK 293T cells were homogenized by 20 strokes in a Dounce homogenizer in 1 ml of MBS buffer (250 mM NaCl, 5 mM EDTA, 10 mM Tris, pH 7.4, proteinase inhibitors) in the presence of 1% Triton® X-100 and centrifuged for ten minutes at 3,000×g at 4° C. The lysates were incubated for 45 minutes on ice in the presence of 1% Triton® X-100, adjusted to 45% sucrose and pipetted at the bottom of an ultracentrifuge tube. Samples were then overlaid with a sucrose step gradient (2 ml of 30% sucrose and 1 ml of 5% sucrose in MBS) as described previously {Huber, 2003 #205}. Gradients were centrifuged for 20 hours at 200,000×g at 4° C. in a swing-out rotor, and seven fractions ([…] each) were collected starting from the top and analyzed by SDS-PAGE. Cholesterol was measured using the Amplex® Red Cholesterol Assay Kit (Molecular Probes).
(§2) Cell Culture Studies. Most cell studies used HEK 293T cells that were grown in DMEM as described [Huber et al. (2001) J. Biol. Chem. 18:18]. Cholesterol-depleted cells were prepared by growing cells in DMEM with pravastatin (8 μM) for two days and then methyl-β-cyclodextrine (MBCD; 5 mM) for 30 minutes just before the experiment. […]

Podocin [2] = test: Multimerization by velocity gradient centrifugation; format: cell-based, mouse; conditions: limited cholesterol depletion of Podocin-expressing cells, FIG. 5B
Description: PHB protein multimerization was studied by velocity gradient centrifugation and blue native gel electrophoresis [Schagger et al. (1991) Anal. Biochem. 199: 223-31]. For preparation of Podocin multimeric complexes HEK293T cells were lysed in 1 ml of Mes-buffered saline (MBS) in the presence of 1% Triton® X-100 and centrifuged for 10 minutes at 1,000×g at 4° C. After centrifugation, the supernatant was collected and SDS was added at a final concentration of 0.1% and incubated for 20 minutes on ice. Thereafter, the lysate was cleared by centrifugation for 15 minutes at 100,000×g. Four milliliters of a discontinuous sucrose gradient (40-5%) was layered on top of a 60% sucrose cushion in a Beckman ultracentrifuge tube. One milliliter of the cell lysate was adjusted with 1 ml of MBS, added on top of this gradient and subjected for centrifugation for 16 hours at 180,000×g at 4° C. in a Beckman SW-41 rotor. After centrifugation 2 ml of the supernatant were discarded and 8 fractions (500 μl each) were collected starting from the top and analyzed by SDS-PAGE.
Previously it was shown that shown that Podocin homo-oligomerizes and forms high-molecular weight complexes by homophilic interactions that require the PHB-domain [Huber et al. (2003) Hum. Mol. Genet. 12:3397-405]. MEC-2 also homo-oligomerizes (infra) as do other PHB-domain proteins [Umlauf et al. (2006) J. Biol. Chem.]. […]

MEC-2 = test: Detergent-resistant membrane (DRM) fractionation by density gradient centrifugation; format: cell-based, C. elegans; conditions: limited cholesterol depletion with MBCD, FIG. 1D
Description: as §1, §2

HeLa-Cx43 cells = test: Ca2+-FLIPR assay, histamine-induced calcium influx; format: cell-based; conditions: limited cholesterol depletion, FIG. 11D
Description: Ca^2+-FLIPR Assay—HeLa-Cx43 cells were loaded with […] FLUO-4/AM and 0.04% Pluronic F-127 (both from Molecular Probes) in HBS but with 20 mM HEPES and 2.5 mM probenecid as described previously (20). After loading, cells were washed twice with HBS by an automated plate washer (Denley Cellwash, Labsystems) and transferred to the FLIPR (Molecular Devices). The FLIPR integrates an argon laser excitation source, a 96-well pipettor, and a detection system utilizing a CCD imaging camera. […] of 3× histamine concentrations were delivered within 2 seconds simultaneously to all of the wells containing […] of HBS. Fluorescence emissions from the 96-wells were monitored simultaneously at an emission wavelength of 515 nm after excitation with 488 nm (F488). Fluorescence data were collected at 0.25 Hertz, 48 seconds before and 8 minutes after stimulation, and analyzed off-line. Histamine response amplitudes were determined from the fluorescence at 3.2 minutes (peak of calcium influx) of the solvent control-subtracted and base-line-corrected traces, and averaged over 3-4 wells of same transfectants, receiving the same stimulus. EC50 values and curves were derived from fitting the function f(x)=(a−d)/(1+(x/C)nH)+d to the data by non-linear regression with a=minimum, d=maximum, C=EC50, and nH=Hill coefficient. […]

Question: methyl-β-cyclodextrin [MBCD] was tested. Which “Podocin in DRM fractions” value (Podocin [1]) did it give?
Answer: Its value is “loss of Podocin and MEC-2 from the DRM fractions”.

Question: What about the “formation of high-molecular weight complexes” value (Podocin [2]) of the same substance?
Answer: The value was “did not interfere”.

Question: And the “MEC-2 in DRM fractions” value (MEC-2)?
Answer: The value was “loss of Podocin and MEC-2 from the DRM fractions”.

Question: And the “Podocin-dependent stimulation of Ca2+ influx” value (HeLa-Cx43 cells)?
Answer: Its value is “abolished”.
